Laboratory results: patent publication US4987140A, “Pyridines” (Roussel Uclaf, priority 1987, dated 1991)

System: chronic-arthritis with adjuvant (increase in volume of the rear paws)
Assay: Anti-inflammatory activity: chronic-arthritis with adjuvant (preventative treatment)
Format: in vivo, rat
Details: male rats aged 42 to 50 days, intra-plantar Freund type adjuvant, product orally from day 0 up to the day before killing (day 17), 24480 min
Procedure: Anti-inflammatory activity: chronic-arthritis with adjuvant (preventative treatment)
In the rat, the injection of Freund type adjuvant in a rear paw causes the rapid appearance of a primary inflammatory lesion in this paw and then, after a latency period of 13 to 15 days, the start up of a secondary arthritic affection, particularly in the other rear paw. The test was carried out on male rats aged 42 to 50 days which received an intra-plantar injection of 0.1 ml of "Freund" type adjuvant (suspension in vaseline oil of 6 mg per ml of killed mycobacterium butyricum). The animals received the product orally from day 0 (day of injection of adjuvant) up to the day before they were killed, which occured on day 17. Control arthritic animals and control normal animals received only the vehicle. The criteria of appreciation of the activity of the substances studied was the increases in volume of the injected rear paws (primary and secondary inflammation) and the non-injected ones (secondary inflammation)by comparison with the average volume of the corresponding paws of normal controls. The DA50 was determined, that is to say, the dose which reduced by 50% the increase in volume of the rear paws of the treated animals in comparison with the control animals.

Compound | DA50 (dose which reduced by 50% the increase in volume of the rear paws of the treated animals in comparison with the control animals) [mg/k]
Cc1c(-c2ccccc2)nc(C(F)(F)F)c(C(=O)Nc2nccs2)c1O [Example 1, 4-hydroxy-5-methyl-6-phenyl-N-(2-thiazolyl)-2-trifluoromethyl-3-pyridine carboxamide] | 0.3
O=C(Nc1nccs1)c1c(C(F)(F)F)nc(-c2ccccc2)c(-c2ccccc2)c1O [Example 3, 5,6-diphenyl-4-hydroxy-N-(2-thiazolyl)-2-trifluoromethyl-3-pyridine carboxamide] | 15
